Legend:
[1] = tested on: Bacillus lentus ATCC 10840; conditions: pH 7.2
[2] = tested on: Bacillus cereus; conditions: pH 7.2
[3] = tested on: NCTC 11145 (Bacillus cereus group); conditions: pH 7.2
[4] = tested on: PaeniBacillus polymyxa ATCC 21551; conditions: pH 7.2
[5] = tested on: Bacillus licheniformis 93.08.043; conditions: pH 7.2
[6] = tested on: 0240015 (Bacillus cereus group); conditions: pH 7.2
[7] = tested on: Bacillus pumilus ATCC 7061; conditions: pH 7.2
[8] = tested on: Bacillus cereus ATCC 7064
[9] = tested on: L. ivanovii 0002147; conditions: 37° C., pH 7.2, 1 000 CFU, detection threshold 30 000 RFU
Procedure: (§1) Various pure strains of the Bacillus genus and also other Gram-positive bacteria were tested in a microplate in the presence of the medium below. A reading of the appearance of the fluorescence in each of the various wells of the microplate was then performed at different times over the course of 44 h of incubation at 37° C.
(§2) The medium having the following composition was used (composition in g/l), pH 7.2:
(§3) The wells of the microplate are inoculated with 10 colony-forming units (CFU) of bacteria of the Bacillus cereus group and 1 000 CFU for the other Bacillus that are non cereus and other Gram-positive bacteria. The microplate is then incubated for 44 h at 37° C. in a microplate reader in order to evaluate the PC-PLC activity of these various strains in the form of kinetics of hydrolysis of the substrate 4 MU-CP, i.e to detect and measure the appearance of fluorescence. The detection threshold of the measuring apparatus is fixed at 30 000 RFU (relative fluorescence unit).

[10] = tested on: Bacillus subtilis ATCC 6051; conditions: 37° C., pH 7.2, 1 000 CFU, detection threshold 30 000 RFU
Procedure: as §1, §2, §3

[11] = tested on: L. monocytogenes ATCC 19118; conditions: 37° C., pH 7.2, 1 000 CFU, detection threshold 30 000 RFU
Procedure: as §1, §2, §3

[12] = tested on: S. aureus 25923; conditions: 37° C., pH 7.2, 1 000 CFU, detection threshold 30 000 RFU
Procedure: as §1, §2, §3

[13] = tested on: S. aureus 8407603; conditions: 37° C., pH 7.2, 1 000 CFU, detection threshold 30 000 RFU
Procedure: as §1, §2, §3

[14] = tested on: L. monocytogenes 0301902; conditions: 37° C., pH 7.2, 1 000 CFU, detection threshold 30 000 RFU
Procedure: as §1, §2, §3

[15] = tested on: L. ivanovii ATCC 49954; conditions: 37° C., pH 7.2, 1 000 CFU, detection threshold 30 000 RFU
Procedure: as §1, §2, §3

[16] = tested on: other Gram-positive bacteria; conditions: pH 7.2
[17] = tested on: Bacillus megaterium ATCC 14581; conditions: pH 7.2
[18] = tested on: Bacillus sphaericus 8710054; conditions: pH 7.2
[19] = tested on: ATCC 6463 (Bacillus cereus group); conditions: pH 7.2
[20] = tested on: Bacillus circulans ATCC 4513; conditions: pH 7.2
[21] = tested on: ATCC 33019 (Bacillus cereus group); conditions: pH 7.2
[22] = tested on: Bacillus cereus ATCC 7064; conditions: pH 7.2
[23] = tested on: ATCC 10876 (Bacillus cereus group); conditions: pH 7.2
[24] = tested on: ATCC 9139 (Bacillus cereus group); conditions: pH 7.2
[25] = tested on: ATCC 6464 (Bacillus cereus group); conditions: pH 7.2
[26] = as indicated in U.S. Pat. No. 6,558,917; cited from earlier work
[27] = Stability of the substrate in aqueous medium; type: physicochemical; conditions: medium at pH 7.2; a pH of 6.8 is required

## Cc1cc(=O)oc2cc(OP(=O)([O-])OCC[N+](C)(C)C)ccc12 [4 MU-PC, 4-methylumbelliferyl choline phosphate]
[1]
  Levels of fluorescence in 24 h: 5000 RFU
  Levels of fluorescence in 40 h: 10000 RFU
[2]
  Incubation time to positive signal (PC-PLC activity): ≥ 15 h
[3]
  Levels of fluorescence in 24 h: >60000 RFU
  Levels of fluorescence in 40 h: >60000 RFU
[4]
  Levels of fluorescence in 24 h: 5000 RFU
  Levels of fluorescence in 40 h: 10000 RFU
[5]
  Levels of fluorescence in 24 h: 2000 RFU
  Levels of fluorescence in 40 h: 2000 RFU
[6]
  Levels of fluorescence in 24 h: >60000 RFU
  Levels of fluorescence in 40 h: >60000 RFU
[7]
  Levels of fluorescence in 24 h: 5000 RFU
  Levels of fluorescence in 40 h: 10000 RFU
[8]
  Reduction of the detection time at pH 7.2 compared with pH 6.8: 10 h
[9]; 24 h
  Levels of fluorescence in 24 h: 2000 RFU
[9]; 40 h
  Levels of fluorescence in 40 h: 10000 RFU
[10]; 24 h
  Levels of fluorescence in 24 h: 10000 RFU
[10]; 40 h
  Levels of fluorescence in 40 h: 20000 RFU
[11]; 24 h
  Levels of fluorescence in 24 h: 4000 RFU
[11]; 40 h
  Levels of fluorescence in 40 h: 15000 RFU
[12]; 24 h
  Levels of fluorescence in 24 h: 2000 RFU
[12]; 40 h
  Levels of fluorescence in 40 h: 2000 RFU
[13]; 24 h
  Levels of fluorescence in 24 h: 2000 RFU
[13]; 40 h
  Levels of fluorescence in 40 h: 2000 RFU
[14]; 24 h
  Levels of fluorescence in 24 h: 5000 RFU
[14]; 40 h
  Levels of fluorescence in 40 h: 10000 RFU
[15]; 24 h
  Levels of fluorescence in 24 h: 2000 RFU
[15]; 40 h
  Levels of fluorescence in 40 h: 10000 RFU
[16]
  Incubation time to positive signal (PC-PLC activity): > 40 h
[17]
  Levels of fluorescence in 24 h: 5000 RFU
  Levels of fluorescence in 40 h: 5000 RFU
[18]
  Levels of fluorescence in 24 h: 20000 RFU
  Levels of fluorescence in 40 h: >60000 RFU
[19]
  Levels of fluorescence in 24 h: >60000 RFU
  Levels of fluorescence in 40 h: >60000 RFU
[20]
  Levels of fluorescence in 24 h: 10000 RFU
  Levels of fluorescence in 40 h: 20000 RFU
[21]
  Levels of fluorescence in 24 h: >60000 RFU
  Levels of fluorescence in 40 h: >60000 RFU
[22]
  Levels of fluorescence in 24 h: >60000 RFU
  Levels of fluorescence in 40 h: >60000 RFU
[23]
  Levels of fluorescence in 24 h: >60000 RFU
  Levels of fluorescence in 40 h: >60000 RFU
[24]
  Levels of fluorescence in 24 h: >60000 RFU
  Levels of fluorescence in 40 h: >60000 RFU
[25]
  Levels of fluorescence in 24 h: >60000 RFU
  Levels of fluorescence in 40 h: >60000 RFU

## Cc1cc(=O)oc2cc(OP(=O)(O)OC3C(O)C(O)C(O)C(O)C3O)ccc12 (stereo not shown) [4 MU-MIP, 4-methylumbelliferyl myoinositol-1-phosphate]
[26]
  Stability in an aqueous medium: reduced stability
[27]
  Stability of the substrate at pH 7.2: instability of the substrate being too great
